Patent publication US7820196B2, “Physiologically active agents containing vicinal dithioglycols and use thereof in various branches of economy” (priority 1999, dated 2010)

Tested on: broiler chickens
Assay: Example 6: effect of unithiol on productivity and meat quality of broiler chickens
Format: in vivo
Parameters: average daily gain: unit not given here
Description: An experiment was conducted, on the inventors' initiative, on the experimental base of the All-Russia research and technological institute for aviculture (VNITIP) during which a study was given to the following tasks: • determination of an effect produced by unithiol (DMPS) on the productivity and meat quality of broiler chickens; • effect produced by unithiol on the accumulation of heavy metal compounds (mercury, cadmium, lead) in various tissues of poultry.
The experiment was carried out in a vivarium on broiler chickens of one cross. Poultry was grown in cell batteries from one day to six-week age. The operating parameters and feeding level met the recommendation VNITIP 1999. The experiment was conducted according to the diagram on Table 1.
The poultry population: 1 and 2 groups, 35 heads each; 3,4,5 groups—6 heads each.
1. Chicks' individual live weight; weighing at the age of one day, 2-, 4-, 6 weeks.
2. Average daily live weight increase of the broilers over a 6-week period.
3. Safety of the poultry population, the daily record keeping of the broilers lost, with the causes of murrain established.
4. Feathering conditions, individual evaluation.
5. Feed consumption over a period of growing by way of the daily record keeping and weighing of specifies feed for each and every group, as calculated per head and per kg of live weight increase.
6. Dressed small carcass mass, individually weighing in slaughtering at the age of 6 weeks.
7. Dressed yield of meat as calculated.
8. Classification of small carcasses according to GOST 25391-82.
9. Meat qualities by way of anatomically dressing the small carcasses of broilers.
10. Chemical meat composition on terms of a dry substance.
12. Fatty acid meat composition.

[1] = Group 2: BR + 17 mg unithiol/kg feed days 15-42
[2] = Group 4: BR + heavy metals + 17 mg unithiol/kg feed, both days 15-42
[3] = Group 5: BR + heavy metals days 15-35, 34 mg unithiol/kg feed days 36-42
[4] = age 4 weeks, Group 2: BR + 17 mg unithiol/kg feed days 15-42
[5] = age 4 weeks, Group 4: BR + heavy metals + 17 mg unithiol/kg feed, both days 15-42
[6] = age 6 weeks, Group 2: BR + 17 mg unithiol/kg feed days 15-42
[7] = age 6 weeks, Group 4: BR + heavy metals + 17 mg unithiol/kg feed, both days 15-42
[8] = age 6 weeks, Group 5: BR + heavy metals days 15-35, 34 mg unithiol/kg feed days 36-42

O=S(=O)([O-])CC(S)CS.[Na+] (stereo not shown) [Unithiol, Sodium 2,3-Dimercaptopropane sulfonate]
feathering conditions (2nd group): best value of feathering conditions | feed remuneration with products (4th and 5th groups, unithiol as additive in feed): improved feed remuneration with products | organoleptic indices of meat (taste, organoleptic qualities of broths) (5nd group, unithiol additionally to feed): highest value as to organoleptic indices | rates of growth (Group 2: 17 mg/kg of feed since 2-week age): higher rates of growth | Dressed carcasses, weight [1]: 1310 gr | Feed consumption per head [1]: 3670 gr | Feed consumption per kg of gain in live weight [1]: 1.98 kg | Inflamed sores [1]: 14.2% | Meat category 1 [1]: 88.6% | Meat category 2 [1]: 11.4% | Meat yield [1]: 69.3% | chemical meat composition: Ash [1]: 0.99% | chemical meat composition: Dry substance [1]: 28.46% | chemical meat composition: Fat [1]: 7.79% | chemical meat composition: Protein [1]: 19.68% | chemical meat composition: Water [1]: 70.4% | fatty acid meat composition: Fatty acids (total) [1]: 29.58 mg per 100 gr of product | fatty acid meat composition: Heptadecanoic [1]: 0.24 mg per 100 gr of product | fatty acid meat composition: Heptadecynoic [1]: 0.14 mg per 100 gr of product | fatty acid meat composition: Isomyristic [1]: 0.16 mg per 100 gr of product | fatty acid meat composition: Isopentadecanoic [1]: 0.14 mg per 100 gr of product | fatty acid meat composition: Linoleic [1]: 6.41 mg per 100 gr of product | fatty acid meat composition: Linolenic [1]: 0.29 mg per 100 gr of product | fatty acid meat composition: Myristic [1]: 0.22 mg per 100 gr of product | fatty acid meat composition: Oleic [1]: 0.13 mg per 100 gr of product | fatty acid meat composition: Palmitic [1]: 7.05 mg per 100 gr of product | fatty acid meat composition: Palmitoleic [1]: 2.25 mg per 100 gr of product | fatty acid meat composition: Pentadecanoic [1]: 0.12 mg per 100 gr of product | fatty acid meat composition: Polyunsaturated [1]: 6.70 mg per 100 gr of product | fatty acid meat composition: Saturated and monounsaturated [1]: 22.88 mg per 100 gr of product | fatty acid meat composition: Stearic [1]: 2.44 mg per 100 gr of product | Dressed carcasses, weight [2]: 1217 gr | Feed consumption per head [2]: 3750 gr | Feed consumption per kg of gain in live weight [2]: 2.13 kg | Meat category 1 [2]: 66.7% | Meat category 2 [2]: 33.3% | Meat yield [2]: 67.6% | chemical meat composition: Ash [2]: 1.07% | chemical meat composition: Dry substance [2]: 25.71% | chemical meat composition: Fat [2]: 2.72% | chemical meat composition: Protein [2]: 21.92% | chemical meat composition: Water [2]: 73.0% | fatty acid meat composition: Fatty acids (total) [2]: 26.96 mg per 100 gr of product | fatty acid meat composition: Heptadecanoic [2]: 0.41 mg per 100 gr of product | fatty acid meat composition: Heptadecynoic [2]: 0.11 mg per 100 gr of product | fatty acid meat composition: Isomyristic [2]: 0.06 mg per 100 gr of product | fatty acid meat composition: Isopentadecanoic [2]: 0.03 mg per 100 gr of product | fatty acid meat composition: Linoleic [2]: 6.30 mg per 100 gr of product | fatty acid meat composition: Linolenic [2]: 0.25 mg per 100 gr of product | fatty acid meat composition: Myristic [2]: 0.15 mg per 100 gr of product | fatty acid meat composition: Oleic [2]: 8.39 mg per 100 gr of product | fatty acid meat composition: Palmitic [2]: 6.13 mg per 100 gr of product | fatty acid meat composition: Palmitoleic [2]: 1.71 mg per 100 gr of product | fatty acid meat composition: Pentadecanoic [2]: 0.05 mg per 100 gr of product | fatty acid meat composition: Polyunsaturated [2]: 6.55 mg per 100 gr of product | fatty acid meat composition: Saturated and monounsaturated [2]: 20.41 mg per 100 gr of product | fatty acid meat composition: Stearic [2]: 3.37 mg per 100 gr of product | Dressed carcasses, weight [3]: 1215 gr | Feed consumption per head [3]: 3780 gr | Feed consumption per kg of gain in live weight [3]: 2.17 kg | Meat category 1 [3]: 60.0% | Meat category 2 [3]: 40.0% | Meat yield [3]: 68.3% | chemical meat composition: Ash [3]: 1.14% | chemical meat composition: Dry substance [3]: 25.18% | chemical meat composition: Fat [3]: 2.52% | chemical meat composition: Protein [3]: 21.52% | chemical meat composition: Water [3]: 73.28% | fatty acid meat composition: Fatty acids (total) [3]: 26.71 mg per 100 gr of product | fatty acid meat composition: Heptadecanoic [3]: 0.14 mg per 100 gr of product | fatty acid meat composition: Heptadecynoic [3]: 0.08 mg per 100 gr of product | fatty acid meat composition: Isomyristic [3]: 0.06 mg per 100 gr of product | fatty acid meat composition: Isopentadecanoic [3]: 0.06 mg per 100 gr of product | fatty acid meat composition: Linoleic [3]: 6.54 mg per 100 gr of product | fatty acid meat composition: Linolenic [3]: 0.18 mg per 100 gr of product | fatty acid meat composition: Myristic [3]: 1.29 mg per 100 gr of product | fatty acid meat composition: Oleic [3]: 7.40 mg per 100 gr of product | fatty acid meat composition: Palmitic [3]: 5.73 mg per 100 gr of product | fatty acid meat composition: Palmitoleic [3]: 1.59 mg per 100 gr of product | fatty acid meat composition: Pentadecanoic [3]: 0.07 mg per 100 gr of product | fatty acid meat composition: Polyunsaturated [3]: 6.72 mg per 100 gr of product | fatty acid meat composition: Saturated and monounsaturated [3]: 19.99 mg per 100 gr of product | fatty acid meat composition: Stearic [3]: 3.57 mg per 100 gr of product | average daily gain (age 1-6 weeks, Group 2: BR + 17 mg unithiol/kg feed days 15-42): 44.0 | average daily gain (age 1-6 weeks, Group 4: BR + heavy metals + 17 mg unithiol/kg feed, both days 15-42): 41.8 | average daily gain (age 1-6 weeks, Group 5: BR + heavy metals days 15-35, 34 mg unithiol/kg feed days 36-42): 41.4 | average daily gain (age 2-4 weeks, Group 2: BR + 17 mg unithiol/kg feed days 15-42): 47.1 | average daily gain (age 2-4 weeks, Group 4: BR + heavy metals + 17 mg unithiol/kg feed, both days 15-42): 42.7 | average daily gain (age 4-6 weeks, Group 2: BR + 17 mg unithiol/kg feed days 15-42): 64.1 | average daily gain (age 4-6 weeks, Group 4: BR + heavy metals + 17 mg unithiol/kg feed, both days 15-42): 62.1 | average daily gain (age 4-6 weeks, Group 5: BR + heavy metals days 15-35, 34 mg unithiol/kg feed days 36-42): 64.2 | live weight [4]: 993.4 grams | safety of the poultry population [4]: 100% | live weight [5]: 930.0 grams | safety of the poultry population [5]: 100% | live weight [6]: 1890.5 grams | safety of the poultry population [6]: 100% | live weight [7]: 1880.0 grams | safety of the poultry population [7]: 100% | live weight [8]: 1780.0 grams | safety of the poultry population [8]: 83.3% | dressed yield of meat and fatness (application of unithiol): highest level of the dressed yield of meat and also good fatness | chemical and fatty acid meat composition (unithiol in the composition of feed): increased polyunsaturated fatty acid content in chicken meat
